Patent publication US8614301B2, “Methods of treating cancer using anti CD24 antibodies” (priority 2007, dated 2013)
Residues, ends and D or L forms follow the SMILES beside them. *: point of attachment. Cbz = O=C(OCc1ccccc1)*

Key:
HT29 cells = assay: Combined anti-CD24 mAb and chemotherapy, methylene-blue viability assay; format: cell-based, human; settings: simultaneous SWA11, 72 hours
Procedure: Experiments were performed in duplicates or repeated twice. The Y axes stand for cell viability quantified via methylene-blue assay.
The killing effect of the anti-CD24 antibodies and the chemotherapies was assessed, in-vitro, using a methylene-blue assay: 2.5×10^3 cells/well were plated onto 96-well in 0.2 ml complete medium. On the morrow the media were refreshed with the addition of the indicated reagents, held in incubation for 72 hours. The cells were washed with PBS and then fixed with a 0.2 mL 4% formaldehyde solution for 2 hours at room temperature. The cells were then washed with PBS, incubated with 0.15 mL ribonuclease A (3 μg/mL) for 30 minutes at room temperature, equilibrated with 0.2 mL sodium borate (0.1M, pH 8.5), and stained with 0.2 mL methylene blue (0.5%) for 10 minutes at room temperature. Finally, the cells were thoroughly washed with tap water and cell-bound dye was eluted with 0.2 mL HCl (0.1M). Color intensity was read in an enzyme-linked immunosorbent assay plate reader at 595 nm. SWA11 served as the anti-CD24 antibody.

[1] = target: T1, human CD24 polypeptide (human) (UniProt P25063); assay: cell-based or functional assay
T1 sequence (looked up): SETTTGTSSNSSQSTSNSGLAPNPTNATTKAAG

CD24 in HT29 cells = target: T2, CD24 in HT29 cells (Homo sapiens, UniProt P25063); assay: Western blot of CD24 degradation in mAb-treated cells; format: cell-based; settings: up to 6 hours
T2 construct: endogenous in cells; host or cells: HT29 human colorectal cancer cells (ATCC)
T2 sequence (P25063 27-59 limits assumed): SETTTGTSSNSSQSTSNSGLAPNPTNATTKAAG
Procedure: FIGS. 5A and 5B are photos showing immunodetection on Western blot of CD24 degradation in anti-CD24 mAb treated cancer cells. HT29 (FIG. 5A) and Colo357 (FIG. 5B) cells were exposed to monoclonal anti-CD24 antibody SWA11 for the indicated periods of time, cells harvested and protein extracted. 20 μg of cell proteins from each sample were separated by SDS-PAGE, blotted onto membrane and reacted with anti-CD24 (SWA11 mAb, CD24) or polyclonal anti-actin (1-19, Santa Cruz Biotechnology, Santa Cruz Calif.). Visualization was effected by anti-mouse and anti-goat (respectively) second antibodies. Note the degradation of CD24 apparent already at 2 hours treatment in both cell lines, with no effect on actin levels;
FIG. 6 is a photo showing the lysosomal mediation of CD24 degradation in HT29 cancer cells treated with anti-CD24 mAb. […]
Exponentially growing cells were harvested and protein concentrations were determined using the Bio-Rad protein assay kit (Bio-Rad, Hercules, Calif.). […]
In order to assess whether CD24 proteolysis is involved in the inhibition of CD24-expressing cancer cell growth by anti-CD24 antibodies, protein levels of CD24 and housekeeping gene product actin in mAb-treated and control cells were analyzed by SDS-PAGE and Western blotting with specific antibodies.

[2] = target: T1, human CD24 polypeptide (human); assay: cell-based or functional assay; remark: listed apart in the source

CC(=O)O[C@H]1C(=O)[C@@]2(C)[C@H]([C@H](OC(=O)c3ccccc3)[C@]3(O)C[C@H](OC(=O)[C@H](O)[C@@H](NC(=O)c4ccccc4)c4ccccc4)C(C)=C1C3(C)C)[C@]1(OC(C)=O)CO[C@@H]1C[C@@H]2O [Paclitaxel]
cytotoxic effect of chemotherapeutic agent when combined with SWA11 (HT29 cells): enhanced the cytotoxic effect

O=C1[O][Pt]2([NH][C@@H]3CCCC[C@H]3[NH]2)[O]C1=O [Oxaloplatin]
cytotoxic effect of chemotherapeutic agent when combined with SWA11 (HT29 cells): enhanced the cytotoxic effect

SWA11-ZZ-PE38 immunoconjugate
cytotoxity (LD50) [1]: 32 ng/mL

O=c1[nH]cc(F)c(=O)[nH]1 [5-florouracil]
cytotoxic effect of chemotherapeutic agent when combined with SWA11 (HT29 cells): enhanced the cytotoxic effect

CCN(CC)CCCC(C)Nc1ccnc2cc(Cl)ccc12 (centres unmarked) [chloroquine]
effect on anti-CD24 mAb induced decrease in CD24 protein level (CD24 in HT29 cells; 0.5 mM, lysosomal inhibitor, added 2 hours before mAb): prevented the decrease in CD24 protein level

COc1cccc2c1C(=O)c1c(O)c3c(c(O)c1C2=O)C[C@@](O)(C(=O)CO)C[C@@H]3O[C@H]1C[C@H](N)[C@H](O)[C@H](C)O1 [Doxorubicin]
cytotoxic effect of chemotherapeutic agent when combined with SWA11 (HT29 cells): enhanced the cytotoxic effect

CC(C)C[C@@H](C=O)NC(=O)[C@H](CC(C)C)NC(=O)[C@H](CC(C)C)NC(=O)OCc1ccccc1 [MG132] (Cbz-Leu-Leu-Leu-aldehyde)
effect on anti-CD24 mAb induced CD24 degradation (CD24 in HT29 cells; 0.1 mM, proteasomal inhibitor, added prior to mAb): had no effect

B1: SWA11 anti-CD24 monoclonal antibody (antibody, human IgG1, kappa, V domains shown)
V domain 1: SDVHLQESGPDLVKPSQSLSLTCTVTGYSITSGYTWHWIRQFPGNTVEWMGYIQYTGSTRYNPALRGRLSISRDTSKNQFFLQLISVTTADTGTYFCARGTTASFDYWGQGTTLTVAS
V domain 2: DIVMSQSPSSLNVSVGEKVTMRCRSSQSLLYSSDQKNYLTWYQQKPGQSPKLLISWASTRASGVPDRFTGSGSGTDFTLTISSVKAEDLGVYYCQQYFIYPLTFGVGTKLGLKR
growth inhibition (cell viability, methylene blue) [2]: < 90%
